Measurements published in ChEMBL document CHEMBL5120795, “Small-Molecule Inhibitors of Tankyrases as Prospective Therapeutics for Cancer” (J Med Chem, 2022).
pIC50, pKd, pKi: −log10 of the molar value. ≈ marks a conversion by molar mass, not a printed value. Blank lines part the entries; values can stand above or below the compound they belong to.

Assays:
[1] = molecular target: T1, Poly [ADP-ribose] polymerase tankyrase-1 (Homo sapiens, UniProt O95271); test: Inhibition of TNKS1 (unknown origin)
T1 sequence (O95271 whole entry): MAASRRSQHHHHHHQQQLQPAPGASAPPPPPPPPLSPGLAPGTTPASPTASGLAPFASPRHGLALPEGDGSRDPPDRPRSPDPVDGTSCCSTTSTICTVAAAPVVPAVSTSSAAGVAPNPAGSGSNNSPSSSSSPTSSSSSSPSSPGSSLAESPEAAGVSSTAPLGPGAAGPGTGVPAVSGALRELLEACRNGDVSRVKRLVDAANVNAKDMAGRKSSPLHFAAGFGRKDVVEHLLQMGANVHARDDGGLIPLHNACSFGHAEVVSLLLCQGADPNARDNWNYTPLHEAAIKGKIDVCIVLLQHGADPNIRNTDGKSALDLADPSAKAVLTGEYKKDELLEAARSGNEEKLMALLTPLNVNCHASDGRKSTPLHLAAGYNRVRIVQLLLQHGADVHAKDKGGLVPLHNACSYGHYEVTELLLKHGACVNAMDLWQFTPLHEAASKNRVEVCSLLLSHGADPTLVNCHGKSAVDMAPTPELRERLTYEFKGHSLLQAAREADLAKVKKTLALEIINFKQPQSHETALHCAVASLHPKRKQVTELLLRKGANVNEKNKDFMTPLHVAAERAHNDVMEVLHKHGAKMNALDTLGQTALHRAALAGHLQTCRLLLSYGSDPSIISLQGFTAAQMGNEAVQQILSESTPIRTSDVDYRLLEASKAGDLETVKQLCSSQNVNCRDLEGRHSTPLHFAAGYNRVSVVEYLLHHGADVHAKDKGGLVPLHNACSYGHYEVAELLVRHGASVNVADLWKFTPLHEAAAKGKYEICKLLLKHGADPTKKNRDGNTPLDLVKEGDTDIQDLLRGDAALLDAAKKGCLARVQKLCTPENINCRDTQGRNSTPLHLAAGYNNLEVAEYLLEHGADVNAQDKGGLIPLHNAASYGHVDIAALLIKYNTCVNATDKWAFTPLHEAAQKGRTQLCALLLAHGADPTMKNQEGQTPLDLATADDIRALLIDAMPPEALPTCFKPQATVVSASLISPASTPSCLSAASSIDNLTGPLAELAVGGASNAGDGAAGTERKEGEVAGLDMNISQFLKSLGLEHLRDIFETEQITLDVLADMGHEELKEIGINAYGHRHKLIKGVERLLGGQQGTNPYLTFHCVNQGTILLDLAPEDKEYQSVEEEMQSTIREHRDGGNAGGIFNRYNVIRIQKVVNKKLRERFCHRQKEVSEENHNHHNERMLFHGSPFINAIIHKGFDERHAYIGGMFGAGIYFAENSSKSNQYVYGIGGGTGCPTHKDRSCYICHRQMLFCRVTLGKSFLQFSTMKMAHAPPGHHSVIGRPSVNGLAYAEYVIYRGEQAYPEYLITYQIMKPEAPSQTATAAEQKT

[2] = molecular target: T2, Poly [ADP-ribose] polymerase tankyrase-2 (Homo sapiens, UniProt Q9H2K2); test: Inhibition of TNKS2 (unknown origin)
T2 sequence (Q9H2K2 whole entry): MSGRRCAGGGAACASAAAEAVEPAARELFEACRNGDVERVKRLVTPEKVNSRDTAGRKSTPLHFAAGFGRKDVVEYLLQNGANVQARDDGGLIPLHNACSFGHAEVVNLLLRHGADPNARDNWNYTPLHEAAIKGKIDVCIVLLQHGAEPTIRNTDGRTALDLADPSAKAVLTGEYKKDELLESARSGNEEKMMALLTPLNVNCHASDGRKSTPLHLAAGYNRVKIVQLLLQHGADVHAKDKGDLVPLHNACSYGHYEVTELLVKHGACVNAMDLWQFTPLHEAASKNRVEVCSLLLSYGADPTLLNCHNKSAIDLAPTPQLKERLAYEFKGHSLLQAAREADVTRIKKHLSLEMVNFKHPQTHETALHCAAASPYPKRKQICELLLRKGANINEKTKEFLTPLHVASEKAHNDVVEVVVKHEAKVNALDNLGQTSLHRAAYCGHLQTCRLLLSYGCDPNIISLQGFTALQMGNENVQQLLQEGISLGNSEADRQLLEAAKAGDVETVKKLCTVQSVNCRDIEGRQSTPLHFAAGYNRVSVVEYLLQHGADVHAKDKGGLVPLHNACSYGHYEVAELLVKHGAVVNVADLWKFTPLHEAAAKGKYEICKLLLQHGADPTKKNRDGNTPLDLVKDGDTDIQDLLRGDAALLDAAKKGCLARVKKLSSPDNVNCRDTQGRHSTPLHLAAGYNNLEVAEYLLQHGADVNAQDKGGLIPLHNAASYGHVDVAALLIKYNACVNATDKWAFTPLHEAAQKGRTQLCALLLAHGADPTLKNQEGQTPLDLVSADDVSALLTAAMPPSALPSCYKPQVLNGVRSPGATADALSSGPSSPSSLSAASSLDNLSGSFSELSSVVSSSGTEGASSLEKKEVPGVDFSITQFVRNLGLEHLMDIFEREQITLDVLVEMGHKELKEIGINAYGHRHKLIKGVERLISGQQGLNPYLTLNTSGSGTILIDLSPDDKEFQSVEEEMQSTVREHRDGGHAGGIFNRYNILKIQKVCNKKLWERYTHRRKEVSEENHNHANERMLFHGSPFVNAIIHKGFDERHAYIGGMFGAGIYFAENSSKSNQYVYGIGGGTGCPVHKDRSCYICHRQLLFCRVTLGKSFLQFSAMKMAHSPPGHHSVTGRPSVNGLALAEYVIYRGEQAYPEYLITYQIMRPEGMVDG

[3] = molecular target: T3, Poly [ADP-ribose] polymerase 1 (Homo sapiens, UniProt P09874); test: Inhibition of PARP1 (unknown origin)
[4] = Stability in mouse liver microsomes assessed as compound remaining measured after 30 mins relative to control; format: ADME, Microsome; conditions: read-out: Stability
physchem = conditions: aqueous, pH 7.4
[5] = Toxicity in mouse xenografted with COLO 320DM cells assessed as reduction in body weight at 60 mg/kg, po daily relative to control; format: organism-based; design: scale not given: the % may be the effect or the level left; conditions: in vivo
[6] = Toxicity in mouse xenografted with COLO 320DM cells assessed as reduction in body weight at 30 mg/kg, ip daily relative to control; format: organism-based; design: scale not given: the % may be the effect or the level left; conditions: in vivo
[7] = molecular target: T4, Poly [ADP-ribose] polymerase 2 (Homo sapiens, UniProt Q9UGN5); test: Inhibition of PAPR2 (unknown origin)
[8] = molecular target: T2, Poly [ADP-ribose] polymerase tankyrase-2; test: Binding affinity to ARC4 domain at TNKS2 (unknown origin) assessed as dissociation constant
[9] = molecular target: T5, Poly [ADP-ribose] polymerase tankyrase-1 (Homo sapiens) (UniProt O95271); test: Inhibition of TNKS1 (unknown origin) at 1 uM relative to control
T5 sequence (whole entry): T1 sequence (O95271 whole entry)

[10] = molecular target: T6, Poly [ADP-ribose] polymerase tankyrase-2 (Homo sapiens) (UniProt Q9H2K2); test: Inhibition of TNKS2 (unknown origin) at 1 uM relative to control
T6 sequence (whole entry): T2 sequence (Q9H2K2 whole entry)

[11] = molecular target: T3, Poly [ADP-ribose] polymerase 1; test: Inhibition of PARP1 (unknown origin) at 1 uM relative to control
[12] = molecular target: T4, Poly [ADP-ribose] polymerase 2; test: Inhibition of PARP2 (unknown origin) at 1 uM relative to control
[13] = Oral bioavailability in mouse relative to control; format: ADME, organism-based; conditions: in vivo
[14] = Disruption of ARC5 domain of TNKS1 (unknown origin)/USP25 (unknown origin) protein interaction assessed as inhibition constant; design: species or system Homo sapiens
[15] = Antitumor activity against human MNNG/HOS cells xenografted in mouse assessed as decrease in tumor growth rate at 5 mg/kg, IT administered every other day for 12 days relative to control; format: functional, HOS-TE85; design: scale not given: the % may be the effect or the level left; conditions: time 12 day
SW480 [16] = test: Antitumor activity against human SW480 cells xenografted in mouse assessed as reduction in tumor size at 150 mg/kg, IP relative to control; format: functional; design: scale not given: the % may be the effect or the level left
SW480 [17] = test: Antitumor activity against human SW480 cells xenografted in mouse assessed as reduction in tumor size at 300 mg/kg, IP relative to control; format: functional; design: scale not given: the % may be the effect or the level left

T3 sequence (P09874 whole entry): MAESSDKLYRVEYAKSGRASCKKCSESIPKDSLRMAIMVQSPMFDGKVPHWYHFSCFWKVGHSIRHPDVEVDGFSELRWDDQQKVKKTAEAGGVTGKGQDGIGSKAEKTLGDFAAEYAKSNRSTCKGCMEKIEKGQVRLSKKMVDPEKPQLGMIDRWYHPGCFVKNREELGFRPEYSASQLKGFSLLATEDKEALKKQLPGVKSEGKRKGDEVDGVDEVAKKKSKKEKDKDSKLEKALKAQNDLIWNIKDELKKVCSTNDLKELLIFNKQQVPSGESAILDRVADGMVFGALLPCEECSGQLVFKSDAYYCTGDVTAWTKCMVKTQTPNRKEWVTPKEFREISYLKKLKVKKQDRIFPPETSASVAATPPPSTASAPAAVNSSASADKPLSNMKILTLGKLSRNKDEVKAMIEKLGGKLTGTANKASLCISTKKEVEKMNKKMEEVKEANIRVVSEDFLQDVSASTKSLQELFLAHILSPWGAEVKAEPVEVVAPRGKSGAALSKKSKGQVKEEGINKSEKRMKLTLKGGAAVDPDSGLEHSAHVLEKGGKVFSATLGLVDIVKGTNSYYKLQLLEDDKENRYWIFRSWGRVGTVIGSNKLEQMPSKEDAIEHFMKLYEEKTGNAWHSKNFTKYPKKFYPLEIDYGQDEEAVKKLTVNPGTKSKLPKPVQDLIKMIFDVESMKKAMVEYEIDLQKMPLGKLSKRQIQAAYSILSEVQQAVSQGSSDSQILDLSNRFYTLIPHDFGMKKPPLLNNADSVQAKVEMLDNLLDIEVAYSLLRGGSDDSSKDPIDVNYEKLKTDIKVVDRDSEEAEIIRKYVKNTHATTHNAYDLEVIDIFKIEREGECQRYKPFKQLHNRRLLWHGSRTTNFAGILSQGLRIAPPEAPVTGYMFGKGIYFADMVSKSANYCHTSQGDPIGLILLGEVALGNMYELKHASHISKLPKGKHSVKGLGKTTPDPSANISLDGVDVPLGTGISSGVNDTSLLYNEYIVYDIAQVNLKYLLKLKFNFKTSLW
T4 sequence (Q9UGN5 whole entry, the tested form may be a part): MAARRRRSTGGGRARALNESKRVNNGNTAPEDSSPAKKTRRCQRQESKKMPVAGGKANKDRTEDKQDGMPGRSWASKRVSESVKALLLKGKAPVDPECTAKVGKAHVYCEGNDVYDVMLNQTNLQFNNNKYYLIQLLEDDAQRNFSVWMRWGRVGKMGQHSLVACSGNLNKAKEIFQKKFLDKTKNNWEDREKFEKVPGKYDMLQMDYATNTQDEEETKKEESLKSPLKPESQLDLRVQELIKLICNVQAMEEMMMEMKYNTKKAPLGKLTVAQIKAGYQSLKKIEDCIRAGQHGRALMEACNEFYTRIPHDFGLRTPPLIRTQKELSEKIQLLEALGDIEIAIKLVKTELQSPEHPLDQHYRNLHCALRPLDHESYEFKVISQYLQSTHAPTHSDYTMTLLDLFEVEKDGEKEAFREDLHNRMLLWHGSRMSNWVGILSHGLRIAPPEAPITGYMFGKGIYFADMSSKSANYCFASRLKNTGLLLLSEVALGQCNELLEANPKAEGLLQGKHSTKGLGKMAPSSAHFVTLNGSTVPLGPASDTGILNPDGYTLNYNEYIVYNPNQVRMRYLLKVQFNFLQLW

pIC50 [1]: 8.05
pIC50 [2]: 8.52
pIC50 [3]: < 5.00
SMILES: O=C(Nc1cccc2c(=O)[nH]ccc12)[C@H]1CCCNC1

pIC50 [3]: < 4.00
remaining at 0.5 h [4]: 0%
solubility (physchem): 10 µg/mL (≈ 29.4 µM)
SMILES: COc1ccccc1N1CCN(c2nc3c(c(=O)[nH]2)CCCC3)CC1

SMILES: CS(=O)(=O)c1ccc(-c2nnc(/C=C/c3nnc(-c4ccc(C#N)cc4)o3)n2-c2ccccc2Cl)nc1
Activity [5]: > 15%
Activity [6]: > 15%

pIC50 [2]: 7.82
SMILES: COc1ccc(-n2c(SCCCN3C(=O)c4cccc5cccc(c45)C3=O)nnc2-c2ccncc2)cc1

pIC50 [3]: < 5.00
pIC50 [7]: < 5.00
SMILES: Cc1cc(NCCc2ccc(O)cc2)c2nncn2n1

SMILES: CC(=O)N[C@@H](CCCNC(=N)N)C(=O)N[C@@H](CCC(=O)O)C(=O)N[C@H]1CCn2cc(nn2)-c2cc(C(=O)O)cc(c2)-c2cn(nn2)CC[C@@H](C(=O)N[C@@H](CCC(=O)O)C(N)=O)NC(=O)CNC(=O)[C@H](CC(=O)O)NC(=O)CNC1=O
pKd [8]: 6.36

pIC50 [2]: 5.72
pIC50 [3]: 5.74
SMILES: COc1ccc(C2(CNC(=O)c3ccc(NC(=O)c4ccco4)cc3)CCOCC2)cc1

inhibition [9]: 100%
inhibition [10]: 100%
inhibition [11]: 0%
inhibition [12]: 0%
SMILES: COc1cc2ncnc(N3CCC(CN4Cc5ccccc5N(c5ccc(F)c(C#N)c5)C4=O)CC3)c2cc1OC

bioavailability [13]: 100%
SMILES: C[C@@H]1CN(c2cc(F)c3c(c2)N(C)C(=O)C32CCN(c3nc4c(c(=O)[nH]3)CCCN4C)CC2)C[C@H](C)O1

pKi [14]: 4.69
SMILES: CCc1ccc(OCC(=O)Nc2sc(C)c(C)c2C(N)=O)c(F)c1

SMILES: CC(=O)N[C@@H](CCCNC(=N)N)C(=O)N[C@@H](CCC(=O)O)C(=O)N[C@H]1CCn2cc(nn2)CCCc2cn(nn2)CC[C@@H](C(=O)N[C@@H](CCC(=O)O)C(N)=O)NC(=O)CNC(=O)[C@H](CC(=O)O)NC(=O)CNC1=O
pKd [8]: 6.22

SMILES: O=C(Nc1cccc2cccnc12)c1ccc(N2C(=O)[C@@H]3[C@H](C2=O)[C@@H]2C=C[C@H]3C2)cc1
Activity [15]: 73%

SMILES: COc1ccc(-n2c(SCc3nc(-c4ccc(C)cc4)no3)nnc2-c2ccncc2)cc1
Activity (SW480 [16]): 33%
Activity (SW480 [17]): 35%
